Experiments:
Type in all cases: in vivo
transplanted rice plant = assay: Test Example 1: effect on crop, application before weed generation in submerged conditions (symbol a); conditions: application herbicide amount 320 g/ha
Procedure, shortened: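 Rice at 2.5 leaf stage transplanted into submerged soil (4 cm depth) sown with three weed species; herbicide applied before weed emergence.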

[1] = test system: Echinochloa crus-galli var. crus-galli; assay: Test Example 3: herbicidal effect by foliage application, Wagner pot (symbol H); conditions: application herbicide amount 320 g/ha
Procedure, shortened: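 Foliar spray of water-diluted emulsion formulation at a predetermined herbicide amount onto 14-day-old plants in flooded alluvial soil (water depth 0.1–0.5 cm), greenhouse 25–30 °C; rice sown alongside. Scored 3 wk post-application on set criteria.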

Alopecurus myosuroides [2] = assay: Test Example 4: herbicidal effect by soil treatment (symbol J); conditions: application herbicide amount 320 g/ha
Procedure, shortened: (§1)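 Seeds were sown in sterilized diluvial soil, covered with about 1.5 cm of soil, and the soil surface was sprayed with a water-diluted emulsion of the compound at a predetermined rate. Plants grew in a greenhouse at 25° C. to 30° C.; effects were scored visually 3 weeks after application.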

Abutilon theophrasti = assay: Test Example 4: herbicidal effect by soil treatment (symbol M); conditions: application herbicide amount 320 g/ha
Procedure, shortened: as §1

Chenopodium album [3] = assay: Test Example 4: herbicidal effect by soil treatment (symbol O); conditions: application herbicide amount 320 g/ha
Procedure, shortened: as §1

Stellaria media = assay: Test Example 4: herbicidal effect by soil treatment (symbol P); conditions: application herbicide amount 320 g/ha
Procedure, shortened: as §1

Galium spurium = assay: Test Example 4: herbicidal effect by soil treatment (symbol Q); conditions: application herbicide amount 320 g/ha
Procedure, shortened: as §1

corn [4] = assay: Test Example 4: effect on crop by soil treatment (symbol c); conditions: application herbicide amount 320 g/ha
Procedure, shortened: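 Crop seed is sown in spots together with several weed species in a box of sterilized diluvial soil. It is covered by about 1.5 cm of soil and kept in a greenhouse held between 25° C. and 30° C.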

[5] = test system: Echinochloa crus-galli var. crus-galli; assay: Test Example 5: herbicidal effect by foliage application, plastic box (symbol H); conditions: 320 g/ha, 3 weeks after application
Procedure, shortened: (§2)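 Emulsion formulation, diluted with water to the intended rate, was applied uniformly to leaves by small sprayer. Recipients were 14-day greenhouse-grown seedlings (25° C. to 30° C.). Assessment followed at 3 weeks.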

Alopecurus myosuroides [6] = assay: Test Example 5: herbicidal effect by foliage application, plastic box (symbol J); conditions: 320 g/ha, 3 weeks after application
Procedure, shortened: as §2

Lolium multiflorum Lam. = assay: Test Example 5: herbicidal effect by foliage application, plastic box (symbol K); conditions: 320 g/ha, 3 weeks after application
Procedure, shortened: as §2

Apera spica-venti = assay: Test Example 5: herbicidal effect by foliage application, plastic box (symbol L); conditions: 320 g/ha, 3 weeks after application
Procedure, shortened: as §2

Amaranthus retroflexus = assay: Test Example 5: herbicidal effect by foliage application, plastic box (symbol N); conditions: 320 g/ha, 3 weeks after application
Procedure, shortened: as §2

Chenopodium album [7] = assay: Test Example 5: herbicidal effect by foliage application, plastic box (symbol O); conditions: 320 g/ha, 3 weeks after application
Procedure, shortened: as §2

Veronica persica = assay: Test Example 5: herbicidal effect by foliage application, plastic box (symbol R); conditions: 320 g/ha, 3 weeks after application
Procedure, shortened: as §2

corn [8] = assay: Test Example 5: effect on crop by foliage application, plastic box (symbol c); conditions: 320 g/ha, 3 weeks after application
Procedure, shortened: (§3)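 Sterilized diluvial soil, plastic box (21 × 13 × 7 cm); spot sowing, ~1.5 cm soil cover; greenhouse 25–30° C.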

soybean = assay: Test Example 5: effect on crop by foliage application, plastic box (symbol d); conditions: 320 g/ha, 3 weeks after application
Procedure, shortened: as §3

| SMILES | Effect grade on crop, a: transplanted rice plant (transplanted rice plant) | herbicidal effect on H (Echinochloa crus-galli var. crus-galli), grade 0-5 [1] | Herbicidal effect grade, J: Alopecurus myosuroides (Alopecurus myosuroides [2]) | Herbicidal effect grade, M: Abutilon theophrasti (Abutilon theophrasti) | Herbicidal effect grade, O: Chenopodium album (Chenopodium album [3]) | Herbicidal effect grade, P: Stellaria media (Stellaria media) | Herbicidal effect grade, Q: Galium spurium (Galium spurium) | Effect on crop grade, c: corn (corn [4]) | H: Echinochloa crus-galli var. crus-galli, herbicidal effect (criteria of Test Example 1) [5] | J: Alopecurus myosuroides, herbicidal effect (criteria of Test Example 1) (Alopecurus myosuroides [6]) | K: Lolium multiflorum Lam., herbicidal effect (criteria of Test Example 1) (Lolium multiflorum Lam.) | L: Apera spica-venti, herbicidal effect (criteria of Test Example 1) (Apera spica-venti) | N: Amaranthus retroflexus, herbicidal effect (criteria of Test Example 1) (Amaranthus retroflexus) | O: Chenopodium album, herbicidal effect (criteria of Test Example 1) (Chenopodium album [7]) | R: Veronica persica, herbicidal effect (criteria of Test Example 1) (Veronica persica) | c: corn, effect on crop (criteria of Test Example 1) (corn [8]) | d: soybean, effect on crop (criteria of Test Example 1) (soybean) |
| --- | --- | --- | --- | --- | --- | --- | --- | --- | --- | --- | --- | --- | --- | --- | --- | --- | --- |
| CON=C(C)CC1CC(O)=C(c2c(C)cc(-c3ccccc3)cc2OC)C1=O (centres unmarked) [6-099] | 5 (Herbicidal ratio of 90% or more (almost completely withered)) | 5 (Herbicidal ratio of 90% or more (almost completely withered)) | 5 (Herbicidal ratio of 90% or more (almost completely withered)) | 3 (Herbicidal ratio of 40% or higher and lower than 70%) | 4 (Herbicidal ratio of 70% or higher and lower than 90%) | 4 (Herbicidal ratio of 70% or higher and lower than 90%) | 3 (Herbicidal ratio of 40% or higher and lower than 70%) | 5 (Herbicidal ratio of 90% or more (almost completely withered)) | 5 (Herbicidal ratio of 90% or more (almost completely withered)) | 5 (Herbicidal ratio of 90% or more (almost completely withered)) | 5 (Herbicidal ratio of 90% or more (almost completely withered)) | 5 (Herbicidal ratio of 90% or more (almost completely withered)) | 4 (Herbicidal ratio of 70% or higher and lower than 90%) | 5 (Herbicidal ratio of 90% or more (almost completely withered)) | 5 (Herbicidal ratio of 90% or more (almost completely withered)) | 5 (Herbicidal ratio of 90% or more (almost completely withered)) | 4 (Herbicidal ratio of 70% or higher and lower than 90%) |
| CON=C(C)CC1CC(OC(=O)COc2ccccc2)=C(c2c(C)cc(-c3ccccc3)cc2OC)C1=O (centres unmarked) [6-100] | 5 (Herbicidal ratio of 90% or more (almost completely withered)) | 5 (Herbicidal ratio of 90% or more (almost completely withered)) | 5 (Herbicidal ratio of 90% or more (almost completely withered)) | 4 (Herbicidal ratio of 70% or higher and lower than 90%) | 5 (Herbicidal ratio of 90% or more (almost completely withered)) | 4 (Herbicidal ratio of 70% or higher and lower than 90%) | 1 (Herbicidal ratio of 5% or higher and lower than 20%) | 4 (Herbicidal ratio of 70% or higher and lower than 90%) | 5 (Herbicidal ratio of 90% or more (almost completely withered)) | 5 (Herbicidal ratio of 90% or more (almost completely withered)) | 5 (Herbicidal ratio of 90% or more (almost completely withered)) | 5 (Herbicidal ratio of 90% or more (almost completely withered)) | 4 (Herbicidal ratio of 70% or higher and lower than 90%) | 4 (Herbicidal ratio of 70% or higher and lower than 90%) | 3 (Herbicidal ratio of 40% or higher and lower than 70%) | 5 (Herbicidal ratio of 90% or more (almost completely withered)) | 3 (Herbicidal ratio of 40% or higher and lower than 70%) |
| CON=C(C)CC1CC(O)=C(c2c(OC)cc(C)cc2OC)C1=O (centres unmarked) [6-103] | 5 (Herbicidal ratio of 90% or more (almost completely withered)) | 5 (Herbicidal ratio of 90% or more (almost completely withered)) | 5 (Herbicidal ratio of 90% or more (almost completely withered)) | 0 (Herbicidal ratio of 5% or lower (almost no effect)) | 0 (Herbicidal ratio of 5% or lower (almost no effect)) | 0 (Herbicidal ratio of 5% or lower (almost no effect)) | 0 (Herbicidal ratio of 5% or lower (almost no effect)) | 5 (Herbicidal ratio of 90% or more (almost completely withered)) | 5 (Herbicidal ratio of 90% or more (almost completely withered)) | 5 (Herbicidal ratio of 90% or more (almost completely withered)) | 5 (Herbicidal ratio of 90% or more (almost completely withered)) | 5 (Herbicidal ratio of 90% or more (almost completely withered)) | 0 (Herbicidal ratio of 5% or lower (almost no effect)) | 0 (Herbicidal ratio of 5% or lower (almost no effect)) | 2 (Herbicidal ratio of 20% or higher and lower than 40%) | 5 (Herbicidal ratio of 90% or more (almost completely withered)) | 0 (Herbicidal ratio of 5% or lower (almost no effect)) |
| CON=C(C)CC1CC(O)=C(c2c(C)cc(-c3cc(F)c(F)c(F)c3)cc2C)C1=O (centres unmarked) [6-104] | 5 (Herbicidal ratio of 90% or more (almost completely withered)) | 5 (Herbicidal ratio of 90% or more (almost completely withered)) | 5 (Herbicidal ratio of 90% or more (almost completely withered)) | 5 (Herbicidal ratio of 90% or more (almost completely withered)) | 4 (Herbicidal ratio of 70% or higher and lower than 90%) | 3 (Herbicidal ratio of 40% or higher and lower than 70%) | 4 (Herbicidal ratio of 70% or higher and lower than 90%) | 5 (Herbicidal ratio of 90% or more (almost completely withered)) | 5 (Herbicidal ratio of 90% or more (almost completely withered)) | 5 (Herbicidal ratio of 90% or more (almost completely withered)) | 5 (Herbicidal ratio of 90% or more (almost completely withered)) | 5 (Herbicidal ratio of 90% or more (almost completely withered)) | 5 (Herbicidal ratio of 90% or more (almost completely withered)) | 4 (Herbicidal ratio of 70% or higher and lower than 90%) | 4 (Herbicidal ratio of 70% or higher and lower than 90%) | 5 (Herbicidal ratio of 90% or more (almost completely withered)) | 3 (Herbicidal ratio of 40% or higher and lower than 70%) |

— patent US11000033B2, “Ketone or oxime compound, and herbicide” (NISSAN CHEMICAL CORPORATION, priority 2014, dated 2021)
